Here are results for two molecules from patent US8426559B2, “Injectable β-hairpin peptide hydrogel that kills methicillin-resistant Staphylococcus aureus” (University of Delaware, priority 2009, dated 2013).

Non-standard residues stand in square brackets, D forms with d. Residues, ends and D or L forms follow the SMILES beside them.

Data set [1] deals with C3H10t1/2 mesenchymal stem cells. In words: Cytotoxicity of hydrogel towards mammalian cells, live/dead viability assay. The class given is cell-based, murine. As to the method:
The confocal images show live/dead viability assays performed using murine C3H10t1/2 mesenchymal stem cells that had been cultured for 24 h on (A) a 2 wt % MARG1 hydrogel surface and on (B) a TCTP control surface. This cell line was chosen because these cells are sensitive to their environment and thus good indicators of a material's cytotoxic properties.
The images in FIGS. 5A,B are rendered in black and white, where the light areas represent cells that fluoresce green (live cells) and dark areas represent cells that fluoresce red (dead cells).
C3H10t1/2 mesenchymal stem cells (ATCC # CCL-226) were cultured using Dulbecco's Modified Eagle's Medium (DMEM, Sigma Aldrich, D6546) supplemented with 10% Fetal Bovine Serum, 5 mM L-Glutamine, 50 μg/mL Gentamicin at 37° C. in 5% CO2. Cells were cultured in T75 cell culture flasks. Cells were kept in culture for seven passages and used for cellular viability on passage number 7. For cell plating, cells were trypsinized and counted using a hemacytometer. The resultant cell suspension was introduced to the hydrogel and control surfaces such that a cell loading density of 30,000 cells/cm^2 was achieved. These samples were incubated for 24 hours at 37° C., 5% CO2. […]

Data set [2] concerns MRSA (methicillin-resistant Staphylococcus aureus, ATCC 33591). In words: Antibacterial assay: bacteria introduced onto hydrogel-coated TCTP surface, proliferation by OD625nm. The class given is cell-based. Conditions: 2 wt % hydrogel on TCTP, 24 hr at 37° C. As to the method:
The antibacterial activity of MARG1 hydrogels was assessed via two distinct assays. In the first assay, bacteria were introduced to the surface of tissue culture treated polystyrene (TCTP) coated with a ˜1-2 mm layer of the gel and its ability to inhibit bacterial proliferation was assessed. This assay measures the ability of MARG1 gels to thwart new infection at a particular site. Here, gels were formed directly on the polystyrene surface without the aid of shear-thin delivery. In the second assay, MARG1 gels were shear-thin delivered via syringe to agar surfaces infected with bacteria, and the ability of the gel to kill bacteria on contact was measured. […]
The gels were incubated for 24 hr at 37° C., and bacterial proliferation was quantitated by light scattering as described in Salick, D. A.; Kretsinger, J. K.; Pochan, D. J.; Schneider, J. P. J. Am. […]
(§1) For each assay, 100 μL of bacteria-free TSB was introduced onto the surface of the hydrogels. […] After this, bacterial growth was monitored by measuring OD625nm of the liquid above the gel by adding 100 μL of bacteria-free TSB to the surfaces, gently mixing and transferring the supernatant to a cuvette. Corrected OD625nm values were calculated to correct for dilution and to normalize for scattering that occurs for each individual bacterial strain. […]

The test system of data set [3] is MSSA (methicillin-susceptible Staphylococcus aureus, ATCC 25923). The data set is described as above. Conditions: 2 wt % hydrogel on TCTP, all bacterial cell loading densities, 24 h, compared to uncoated surface. The class given is cell-based. The method, then:
The antibacterial activity of MARG1 hydrogels was assessed via two distinct assays. In the first assay, bacteria were introduced to the surface of tissue culture treated polystyrene (TCTP) coated with a ˜1-2 mm layer of the gel and its ability to inhibit bacterial proliferation was assessed. This assay measures the ability of MARG1 gels to thwart new infection at a particular site. Here, gels were formed directly on the polystyrene surface without the aid of shear-thin delivery. In the second assay, MARG1 gels were shear-thin delivered via syringe to agar surfaces infected with bacteria, and the ability of the gel to kill bacteria on contact was measured. This assay simulates the introduction of the MARG1 gel via syringe to a bacterial contaminated surface, such as a wound.
Hydrogels for the antibacterial assays were prepared in separate wells of 96-well tissue culture-treated polystyrene plates (Costar 3595). […]
as §1

Regarding `CC(C)[C@H](N)C(=O)N[C@@H](CCCCN)C(=O)N[C@H](C(=O)N[C@@H](CCCCN)C(=O)N[C@H](C(=O)N[C@@H](CCCNC(=N)N)C(=O)N[C@H](C(=O)N[C@@H](CCCCN)C(=O)N[C@H](C(=O)N1CCC[C@@H]1C(=O)N1CCC[C@H]1C(=O)N[C@H](C(=O)N[C@@H](CCCCN)C(=O)N[C@H](C(=O)N[C@@H](CCCCN)C(=O)N[C@H](C(=O)N[C@@H](CCCNC(=N)N)C(=O)N[C@H](C(=O)N[C@@H](CCCCN)C(=O)N[C@H](C(N)=O)C(C)C)C(C)C)C(C)C)C(C)C)[C@@H](C)O)C(C)C)C(C)C)C(C)C)C(C)C` [MARG1, VKVKVRVKV^DPPTKVKVRVKV-NH2] (H-VKVKVRVKV[dP]PTKVKVRVKV-NH2), the “Cytotoxicity towards mammalian cells” value in data set [1] (C3H10t1/2 cells cultured 24 h on 2 wt % hydrogel surface) was “non-cytotoxic”. The “Viability of cells cultured on hydrogel surface versus TCTP control” value in data set [1] (C3H10t1/2 cells, 24 h, 2 wt % hydrogel surface) is reported as “no significant difference”.
VKVKVKVKV^DPPTKVKVKVKV-NH2 [MAX1]: the “MRSA proliferation on hydrogel-coated surface (OD)” value in data set [2] (challenged with 2×10^8 CFU/dm^2 MRSA) is “uninhibited MRSA proliferation”; in data set [2] (lower CFUs of MRSA) it was “inhibiting MRSA at lower CFUs”. Moreover, the “MSSA proliferation on hydrogel-coated surface (OD)” value in data set [3] is listed as “can inhibit bacterial proliferation”.
